From patent US20140080114A1, “METHODS, KITS AND COMPOSITIONS FOR INACTIVATION OF VIRAL AGENTS IN WHOLE BLOOD AND RED BLOOD CELL CONCENTRATES” (APHIOS CORPORATION, priority 2012, published 2014)

Test system: bovine viral diarrhea virus (BVDV)
Assay: Hypericin-luciferase inactivation of BVDV spiked into human red blood cell concentrate, titration of unwashed and washed samples (CPE, TCID50)
Assay type: cell-based
Conditions: for Unwashed Titer / Combined VRF (Titer of unwashed RBC control − Titer of washed sample) / Unwashed VRF (Titer of RBC control − Titer of sample) / Washed Titer / Washed VRF (Titer of RBC control − Titer of sample): Table 1 (Example 1), hypericin low=40, high=200 μg/mL, luciferase low=0.8, high=4.0 μM; for Unwashed Titer: RBCC, RT 2 hours in the dark, luciferin 0.08 mM, ATP 0.8 mM
Protocol: This dose range had not been tested in the previous experiments. Ten different combinations of DMEM (—Ca++, —Mg++), RBCC, virus, hypericin, luciferin, adenosine triphosphate (ATP) and luciferase were prepared to all contain equivalent titers of BVDV calculated to be 6.48 log 10TCID50/mL (logs) based on the titer of the original virus stock. The concentrations of hypericin tested were 40, 80 and 120 μg/mL. Luciferase was tested at 0.16, 0.32 and 0.8 μM. Luciferin and ATP were present at 80 and 800 μM respectively.
The compounds were mixed and incubated at RT for 2 hours in the dark followed by titration of unwashed and washed samples as previously described. Washing rows of wells with dilutions 1 and 2 was performed 2 days post-infection. Final CPEs were read 10 days post-infection.

Structure (SMILES)	Unwashed Titer [log10TCID50/mL]	Combined VRF (Titer of unwashed RBC control − Titer of washed sample) [log TCID50]	Unwashed VRF (Titer of RBC control − Titer of sample) [log TCID50]	Washed Titer [log10TCID50/mL]	Washed VRF (Titer of RBC control − Titer of sample) [log TCID50]	optimal dose of hypericin (with different doses of luciferase, for BVDV) [µg/mL]
Cc1cc(O)c2c(=O)c3c(O)cc(O)c4c5c(O)cc(O)c6c(=O)c7c(O)cc(C)c8c1c2c(c34)c(c78)c65 [HH-LN, hypericin]	3.10	3.87	3.25	2.48	1.50	–
Cc1cc(O)c2c(=O)c3c(O)cc(O)c4c5c(O)cc(O)c6c(=O)c7c(O)cc(C)c8c1c2c(c34)c(c78)c65 [HL-LN, hypericin]	3.48	>4.01	2.87	<2.34	>1.64	–
Cc1cc(O)c2c(=O)c3c(O)cc(O)c4c5c(O)cc(O)c6c(=O)c7c(O)cc(C)c8c1c2c(c34)c(c78)c65 [hypericin, reference compound]	–	–	–	–	–	40
